Laboratory results taken from patent publication US11220548B2, “Treatment of C1013G/CXCR4-associated Waldenstrom's macroglobulinemia with an anti-CXCR4 antibody” (BRISTOL-MYERS SQUIBB COMPANY, priority 2013, dated 2022).

Experiments:
[1] = tested on: WM cell lines (BCWM.1; MWCL.1); experiment: Transwell migration assay of WM cell lines; assay type: cell-based, human; settings: increasing concentrations, 5 h
Protocol: FIGS. 14A and 14B: FIGS. 14A and 14B show the effect of BMS-936564 on migration of WM cells in vitro. WM cell lines (BCWM.1; MWCL.1) were tested for their migratory properties using a transwell migration assay. Cells were exposed to increasing concentrations of BMS-936564 and migration was determined after 5 h. The transwell migration assay was performed in presence of either primary WM BM-MSCs (FIG. 14A) or in presence of SDF-1α (FIG. 14B). In both cases, BMS-936564-dependent inhibition of WM cell migration was observed.

[2] = tested on: WM cell lines (MWCL.1; BCWM.1); experiment: [3H]-thymidine uptake proliferation assay in presence of primary WM BM-MSCs; assay type: cell-based, human; settings: 48 h
Protocol: FIGS. 15A-15C: FIGS. 15A-15C show the effect of BMS-936564 on adhesion and proliferation of WM cells in vitro. WM cell lines were treated with BMS-936564 for 4 h and subsequently tested for adhesion to primary WM BM-MSCs. […] WM cell lines, MWCL.1 (FIG. 15B) and BCWN.1 (FIG. 15C) were cultured with control media and with BMS-936564 for 48 h in the presence or absence of primary WM BMMSCs. Cell proliferation was assessed using a [^3H]-thymidine uptake assay. Bars indicate standard deviations. P indicates P value. All data represent mean (±sd) of triplicate experiments. The CXCR4 antagonist, […] (Sigma-Aldrich, St. Louis, Mo.), was used as control.

BCWM.1 cells [3] = experiment: Western blot of survival signaling in WM cells; assay type: cell-based, human; settings: 6 h, cultured in the context of BM-MSCs, increasing concentrations
Protocol: BCWM.1 cells were exposed to BMS-936564 for 6 h in presence or absence of primary WM BM-MSCs. The BCWM.1 cells were then harvested and cell lysates were subjected to western blot analysis using anti-phospho(p)-ERK1/2, anti-ERK1/2, anti-p-Akt, anti-Akt, anti-p-SRC, and anti-SRC antibodies. BCWM.1 cells cultured in the absence of WM BM-MSCs were used as control. Bars indicate standard deviation.
(§1) Protein lysates were obtained from WM cells by homogenization under nondenaturing conditions in lysis buffer (Cell Signaling Technology, Beverly, Mass.) supplemented with 5 mM NaF, 2 mM Na3VO4, 1 mM PMSF ([…]), 5 μg/mL leupeptine, and 5 μg/mL aprotinin. Whole-cell lysates were subjected to sodium dodecyl sulfate-polyacrylamide gel electrophoresis (SDS-PAGE) and transferred to polyvinylidene difluoride (PVDF) membrane (Bio-Rad Laboratories, Hercules, Calif.). The antibodies used for immunoblotting included: anti-phospho(p)-ERK, anti-ERK, anti-p-Akt, anti-Akt, anti-p-Src, anti-Src, anti-caspase-9, anti-PARP, anti-p-β-catenin, anti-β-catenin, anti-p-GSK3, anti-GAPDH and anti-α-tubulin antibodies (Cell Signaling, Danvers, Mass.).
To dissect the possible role of BMS-936564 in affecting WM signaling, WM cells were cultured in the absence or presence of primary WM BM-MSCs, with increasing concentrations of the anti-CXCR4 antibody.

BCWM.1 cells [4] = experiment: Western blot of apoptosis-related proteins in WM cells; assay type: cell-based, human; settings: 14 h
Protocol: FIGS. 18A and 18B: FIGS. 18A and 18B show the effect of BMS-936564 on apoptosis-related proteins in WM cells. BCWM.1 cells were exposed to BMS-936564 for 14 h. Whole cell lysates were then harvested and subjected to western blot analysis using anti-caspase-9, anti-PARP and anti-tubulin antibodies (FIG. 18A), and anti-p-β catenin, anti-β-catenin, anti-p-GSK3β, and anti-tubulin antibodies (FIG. 18B).
as §1

BCWM.1-mCherry+ cells = experiment: In vivo homing and tumor progression of wild-type WM cells; design: species or system SCID/Bg mice
Protocol: Serum was collected at the end of the study. […] Cell toxicity was performed by MTT. […] Bars indicate standard deviation.
Human serum IgM levels were determined by using a human IgM ELISA assay (ZeptoMetrix, Buffalo, N.Y.), according to the manufacturer's protocol.
SCID/Bg mice (n=5/group) were injected with BCWM.1 infected with either precision LentiORF/CXCR4/GFP (CXCR4^+)- or empty vector probe/RFP (control)-infected BCWM.1 cells. After three weeks, mice were euthanized and organs harvested. Hematoxylin-eosin staining, immunohistochemistry for human-CD20 and -CXCR4 were performed on explanted organs. Independent experiments were conducted to evaluate differences in survival (SCID/Bg mice, n=7/group). Similar studies were conducted using […]/CXCR4-mutated cells and control vector-infected cells (control cells). In vivo homing studies were performed using BCWM.1-mCherry^+ cells: cells were injected intravenously into […] mice and treated with either BMS-936564 or control antibody (10 mg/kg, intraperitoneally; 3-4 times per week for 3 weeks). The ability of BMS-936564 to modulate WM homing to BM, spleen and lymph nodes was evaluated ex vivo at the third week on explanted tissues, by using a fluorescence microscope (Nikon Eclipse 80i, Melville, N.Y.) (Roccaro et al., 2013).
The anti-WM activity of BMS-936564 was also tested in vivo using wild-type WM cells. BCWM.1-mCherry^+ cells were injected intravenously into SCID/Bg mice and treated mice with either BMS-936564 or control antibody.
As CXCR4 inhibition is thought to induce stem cell and tumor cell mobilization, it was hypothesized that BMS-936564 may also induce mobilization of WM cells leading to increased chemosensitivity to anti-WM agents. Accordingly, the effect of BMS-936564 in modulating tumor progression and WM cell dissemination to distant BM niches in vivo was evaluated as monotherapy or in combination with bortezomib.

In the case of “BMS-936564: fully human anti-CXCR4 monoclonal antibody; VH SEQ ID NO: 25, VL SEQ ID NO: 29”, the “migration of WM cell lines towards SDF-1” value [1] is reported as “inhibit migration”, the “migration of WM cell lines towards primary WM BM-MSCs” value [1] is reported as “inhibit migration” and the “WM cell proliferation in presence of WM BM-MSCs” value [2] is reported as “inhibition”. The “p-Akt, p-ERK, and p-Src in WM cells” value (BCWM.1 cells [3]) was “drug-dependent inhibition”, the “caspase-9 and PARP cleavage” value (BCWM.1 cells [4]) was “increase” and the “p-GSK3-β, p-β-catenin and β-catenin” value (BCWM.1 cells [4]) was “increased phospho(p)-GSK3-β, and p-β-catenin up-regulation, leading to β-catenin degradation”. The “tumor cells within the BM” value (BCWM.1-mCherry+ cells; BMS-936564 10 mg/kg i.p., bortezomib 0.5 mg/kg i.p. x2/week, P<0.05) was “significant reduction”, the “serum IgM levels” value (BCWM.1-mCherry+ cells; human IgM ELISA at end of study, P<0.05) was “significantly reduced” and the “WM cell dissemination (BM, spleen and lymph nodes, immunofluorescence imaging ex vivo)” value (BCWM.1-mCherry+ cells; wild-type WM cells, 10 mg/kg intraperitoneally, vs control antibody) was “inhibit WM cell dissemination”.
